Measured values published in patent US20160264616A1, “THERAPEUTIC COMPOUNDS AND METHODS” (priority 2015, published 2016).
“Also recorded” adds a separate entry of the source. Where two headings read alike, the source gives them in different places.

What was measured:
[1] = molecular target: T1, RGS17-accelerated Gαo GTPase activity (Homo sapiens, UniProt Q9UGC6); assay: Malachite green steady-state GTPase assay (RGS17 GAP activity); format: biochemical
T1 construct: This is the same RGS17 construct used in the high throughput screening campaign that is fully active despite the N-terminal truncation; made in house
T1 sequence (Q9UGC6 72-206 limits assumed): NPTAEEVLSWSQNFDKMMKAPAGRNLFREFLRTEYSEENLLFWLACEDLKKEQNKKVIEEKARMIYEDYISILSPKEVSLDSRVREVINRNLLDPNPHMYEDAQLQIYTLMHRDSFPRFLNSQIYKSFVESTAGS
Experimental: Next, the ability of the compounds to inhibit the “GAP” activity of RGS17 was examined. The compounds were tested using a previously described malachite green assay (18), which allows for the detection of free phosphate liberated during the enzymatic cleavage of GTP to GDP by G alpha subunits.
First, stock solutions of each of the 3 components of the developing solution were prepared according to Monroy et al (18). In brief, Compounds were seeded using a half-log dilution with the highest final concentration of compound at 100 μM down to 1 nM. […] A 4×GTP at 1.2 mM diluted in MGB, was used, with a final concentration of 300 μM. To terminate the reaction, 10 μL of a Developing Solution (DS) was 50:12.5:1 (malachite:molybdate:Tween-20) was added to each well using a Microlab Star liquid handling robot (Hamilton Robotics; Reno, Nev.), this achieved a final ratio 4:1 (sample:developing solution) absorbance was read at 642 nm.

RGS17 = molecular target: T2, RGS17 (Homo sapiens, UniProt Q9UGC6); assay: Isothermal titration calorimetry (ITC); format: binding; conditions: for Gibbs free energy of binding / binding enthalpy ΔH / entropic component TΔS / Kd: ITC; for Kd: 25 C, read-out: dissociation constant (Kd)
T2 construct: This is the same RGS17 construct used in the high throughput screening campaign that is fully active despite the N-terminal truncation; made in house
T2 sequence (Q9UGC6 84-200 limits assumed): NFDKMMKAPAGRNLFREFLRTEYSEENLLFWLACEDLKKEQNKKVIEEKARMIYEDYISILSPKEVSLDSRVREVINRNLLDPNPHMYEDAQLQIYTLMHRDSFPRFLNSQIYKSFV
Experimental: ITC was used to determine the binding properties of the lead compounds in solution by determining the dissociation constant (Kd) and stoichiometry (n) of the interaction between RGS17 and the inhibitor compounds.
RGS17 was concentrated in ITC sample buffer (50 mM HEPES pH 7.5, 100 mM NaCl and 1 mM beta-mercaptoethanol) at 50 μM. […] DMSO concentration in both compound and RGS17 sample was 1%, to account for any DMSO effects. Total injections for UI-1956 were set to 5 μL with a duration time of 10 secs and spacing of 240 secs and for UI-5 were set to 12 μL with a duration time of 24 secs and spacing of 240 secs. The total amount of injections for UI-1956 and UI-5 were, 32 and 23 respectively. All experiments were conducted on a GE MicroCal VP-ITC System (General Electric; Piscataway, N.J.) at 25 C. Heats of dilution were determined by averaging the heat evolved by the last five injections and subtracted from the raw data. The values for affinity, stoichiometry and change in enthalpy were then determined using the ORIGIN software provided by the manufacturer.

[2] = molecular target: T3, RGS17:Gαo protein:protein interaction (Homo sapiens, UniProt Q9UGC6); assay: Compound reversibility, washed/unwashed AlphaScreen; format: binding; conditions: RGS17 incubated with 100 μM, washed three times
T3 construct: This is the same RGS17 construct used in the high throughput screening campaign that is fully active despite the N-terminal truncation; made in house; host or cells: BL21 (DE3) E. coli for Gαo
T3 sequence (Q9UGC6 84-200 limits assumed): T2 sequence (Q9UGC6 84-200 limits assumed)
Experimental: To determine the reversibility of compound inhibition of the RGS17:Gαo protein:protein interaction, RGS17 was treated with 100 μM compound. This concentration was determined through the earlier dose-response experiments to inhibit the AlphaScreen assay >25% for each of the compounds (UI-5, UI-1590, UI-1907 and UI-1956). Upon completion of incubation with compounds, each sample was washed three times with ASB buffer. This method will promote dissociation of any compounds that are non-covalent where as any covalent modifiers would result in persistent protein:protein interaction inhibition.
First, stock solutions of all four compounds were made at a 3× concentration or 300 μM for a final concentration of 100 μM. The final DMSO concentration in the assay was 1%. Next, RGS17 and Gαo were diluted into 300 μL of assay buffer (AlphaScreen Buffer: ASB) (50 mM HEPES, 100 mM NaCl, 0.1% Lubrol, 1% bovine serum albumin [BSA], pH 8.0) at a 3× concentration of 30 nM. Next, 7.2 μL of AlphaScreen beads were added to each separate protein. The protein and bead solution was incubated on ice for 30 mins in the dark. Upon completion of protein:bead conjugation, 600 μL of ASB was added to RGS17. To the Gαo sample, 279 μL of AMF (final concentration of 10 μM NaF, […], 10 nM AlCl3, and 5 μM GDP) and 321 μL of ASB were added. The RGS17 sample was split into 90 μL tubes and 90 μL of each compound or DMSO vehicle was added to the RGS17:bead mixture and incubated for 15 mins. Upon completion of compound incubation, the RGS17:bead mixture was washed 3 times with 1.8 mL of ASB. The RGS17 protein:bead samples were pelleted after each wash through centrifugation at 15, 000×g for 10 mins. After the final wash step, the RGS17 protein:bead pellet was resuspended in 180 μL of ASB. Next, to a 384 white plate, 30 μL of the RGS17 protein:bead: compound samples either washed or unwashed were added to each well in triplicate. Finally, 15 μL of the Gαo protein:bead sample was added to each well. The plate was incubated at room temperature, in the dark, for 1.25 hours and read on a Synergy2 plate reader (Biotek, Wisnooski, Vt.) with a sensitivity setting of 200, excitation at 680 nm, and emission read at 570 nm. All data was analyzed with Graphpad Prism 6.0. All data was compared to DMSO controls and corrected for possible bead loss due to washing steps.

[3] = Solubility in aqueous ITC buffer
[4] = malachite green, n=3, read-out: IC50 for inhibition of RGS17 GAP activity

Structure (SMILES)	IC50 [1] [µM]	IC50 [1, 4] [µM]	dissociation constants as determined by isothermal titration calorimetry (summary) (RGS17)	reversibility of inhibition after washing [2]	solubility at the high concentration needed for ITC [3]	Gibbs free energy of binding (RGS17) [kcal/mol]	binding enthalpy ΔH (RGS17) [kcal/mol]	entropic component TΔS (RGS17) [kcal/mol]	Kd (RGS17) [µM]
CC1=C(O)C(=O)C=C2C1=CC=C1[C@@]2(C)CC[C@@]2(C)[C@@H]3C[C@](C)(C(=O)O)CC[C@]3(C)CC[C@]12C [UI-1590]	6	6.36	low μM to nM	reversible	not soluble at the high concentration required; also recorded: not amendable to ITC due to solubility issues				
CC(C)=CCC[C@]1(C)C=Cc2c(O)c3c(c(CC=C(C)C)c2O1)O[C@]12C(=C[C@@H]4C[C@H]1C(C)(C)O[C@@]2(C/C=C(/C)C(=O)O)C4=O)C3=O [UI-1907]				reversible					
C[n+]1cc2c3c(ccc2c2ccc4cc5c(cc4c21)OCO5)OCO3 [UI-5]		12	low μM to nM	reversible	soluble in the aqueous buffer	-8.168	-0.148	8.0202	1.02
O=c1c(-c2cc(O)c(O)c(O)c2)coc2cc(O)c(O)c(O)c12 [UI-1956, 5,6,7-trihydroxy-3-(3,4,5-trihydroxyphenyl)-4H-chromen-4-one]		35	low μM to nM	reversible	soluble in the aqueous buffer	-8.389	-2.158	6.2313	0.714
